Reference: PubChem BioAssay AID588363 (Broad Institute, 2011)
Activity calls are given as the source filed them.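 How the source made its calls: active means compounds lowering polarization with half-effect concentration at most ten times their top valid dose; inconclusive means flat fit with 30 to 70 percent drop, or poor fit; inactive means the rest.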

target: KSHV LANA C-terminal domain (residues 932-1162), DNA binding; assay: inhibitors of C-LANA binding to LBS DNA, dose response, biochemical, fluorescence polarization, MBP fusion, dry powder (AID 588363); conditions: not given

How did the AC50 turn out when `Nc1c(C(=O)Nc2ccccc2F)sc2nc(Cc3ccccc3)cc(C(F)(F)F)c12` was run?
Its AC50 is 23.1 µM.

For `O=C(O)C1Nc2c(O)cc(Cl)c([N+](=O)[O-])c2C2C=CCC12` (configuration not stated), which AC50 is on record?
Its AC50 is 13.2 µM.

For `CC(=O)c1ccc2c(c1)C1C=CCC1C(C(=O)O)N2` (configuration not stated), which AC50 is on record?
The AC50 was 4.46 µM.

With `O=C(O)CCNc1ccc(NCCC(=O)O)c2c1C(=O)c1ccccc1C2=O` as the molecule, how does the AC50 read?
Its AC50 is 24.4 µM.

Which AC50 does the source give for `O=c1c(O)cccc2cc(O)c(O)c(O)c12` here?
Its AC50 is 5.21 µM.

Which AC50 does the source give for `O=C1CCCC(O)=C1N=Nc1ccc(C(=O)O)cc1` here?
Its AC50 is 20.6 µM.

With `O=C(O)c1cc(N2N=C(C(F)(F)F)/C(=C/C=C/c3ccco3)C2=O)ccc1Cl` as the molecule, how does the AC50 read?
Its AC50 is 6.05 µM.

For `O=C(O)C1Nc2ccc(Br)cc2C2C=CCC12` (configuration not stated), which AC50 is on record?
The AC50 was 3.33 µM.

How did the AC50 turn out when `CC1=NN(c2cccc(C(=O)O)c2)C(=O)/C1=C\C=C\c1ccco1` was run?
The AC50 was 31.2 µM.

`CSc1ccc(/C=N/Nc2cccc(C(=O)O)c2)cc1` was tested. Which AC50 did it give?
Its AC50 is 6.54 µM.

Which AC50 does the source give for `O=C1/C(=C/c2ccco2)Oc2c1ccc(O)c2CN1CCCCC1` here?
Its AC50 is 8.54 µM.

How did the AC50 turn out when `CCC(=O)Oc1ccc2c(c1)O/C(=C\c1ccco1)C2=O` was run?
Its AC50 is 16.8 µM.

How did the AC50 turn out when `COC(=O)c1ccccc1NC(=O)CCS(=O)(=O)c1ccc(Br)cc1` was run?
Its AC50 is 16.1 µM.

same assay, conditions: at 35 µM (top of the series)

With `CN(C)S(=O)(=O)c1cc(C(=O)NC2CCSc3ccccc32)ccc1Cl` (configuration not stated) as the molecule, how does the “activity change, negative = inhibition” value read?
Its value is “inactive”.

How did the “activity change, negative = inhibition” value turn out when `Clc1ccc(-c2nnc3sc(-c4ccc(Br)o4)nn23)cc1` was run?
The value was “inactive”.

How did the “activity change, negative = inhibition” value turn out when `CC1(C)[C@@H](O[C@H]2O[C@H](C(=O)O)[C@@H](O)[C@H](O)[C@H]2O[C@@H]2O[C@H](C(=O)O)[C@@H](O)[C@H](O)[C@H]2O)CC[C@]2(C)[C@H]3C(=O)C=C4[C@@H]5C[C@@](C)(C(=O)O)CC[C@]5(C)CC[C@@]4(C)[C@]3(C)CC[C@@H]12` was run?
Its value is “inactive”.

With `Nc1c(/C=C2\C=CC(=O)C(O)=C2)c(=O)nc2sc(CC(=O)N3CCCCC3)nn12` as the molecule, how does the “activity change, negative = inhibition” value read?
The value was “inactive”.
